# Literature values, collected in patent US20230292757A1, “SYNERGISTIC AGROCHEMICAL COMPOSITION COMPRISING DIAMIDES AND PLANT GROWTH REGULATORS” (priority 2020, published 2023).
# What was measured:
# S. littoralis = conditions: oral
# L. migratoria = conditions: oral
structure (smiles),measurement,setting,value
"C=C1C[C@]23C[C@@]1(O)CC[C@H]2[C@@]12C=C[C@H](O)[C@@](C)(C(=O)O1)[C@H]2[C@@H]3C(=O)O [Gibberellic acid (GA3), Gibberellic acid]",food consumption,S. littoralis,significant reduction
same,food consumption,L. migratoria,significant reduction
